ChEMBL document CHEMBL4308841, “Synthesis, in vitro antiproliferative activity, and kinase inhibitory effects of pyrazole-containing diarylureas and diarylamides” (Eur J Med Chem, 2018)

Key:
[1] = test system: CCRF-CEM; experiment: Growth inhibition of human CCRF-CEM cells assessed as cell growth at 0.01 uM incubated for 48 hrs by sulforhodamine B assay relative to control; format: functional; settings: read-out: Activity
[2] = test system: SNB-19; experiment: Growth inhibition of human SNB19 cells assessed as cell growth at 100 uM incubated for 48 hrs by sulforhodamine B assay relative to control; format: functional; settings: SNB-19, 48 h, read-out: Activity
[3] = test system: OVCAR-3; experiment: Growth inhibition of human OVCAR3 cells assessed as cell growth at 0.01 uM incubated for 48 hrs by sulforhodamine B assay relative to control; format: functional; settings: OVCAR-3, 48 h, read-out: Activity
[4] = test system: Hs-578T; experiment: Growth inhibition of human Hs578T cells assessed as cell growth at 0.1 uM incubated for 48 hrs by sulforhodamine B assay relative to control; format: functional; settings: read-out: Activity
[5] = test system: SF-295; experiment: Growth inhibition of human SF295 cells assessed as cell growth at 100 uM incubated for 48 hrs by sulforhodamine B assay relative to control; format: functional; settings: SF-295, 48 h, read-out: Activity
[6] = test system: BT-549; experiment: Growth inhibition of human BT549 cells assessed as cell growth at 0.01 uM incubated for 48 hrs by sulforhodamine B assay relative to control; format: functional; settings: BT-549, 48 h, read-out: Activity
[7] = test system: SW-620; experiment: Growth inhibition of human SW620 cells assessed as cell growth at 0.1 uM incubated for 48 hrs by sulforhodamine B assay relative to control; format: functional; settings: SW-620, 48 h, read-out: Activity
[8] = test system: UO-31; experiment: Growth inhibition of human UO31 cells assessed as cell growth at 100 uM incubated for 48 hrs by sulforhodamine B assay relative to control; format: functional; settings: UO-31, 48 h, read-out: Activity
[9] = test system: HCT-15; experiment: Growth inhibition of human HCT15 cells assessed as cell growth at 0.1 uM incubated for 48 hrs by sulforhodamine B assay relative to control; format: functional; settings: HCT-15, 48 h, read-out: Activity
[10] = test system: ACHN; experiment: Growth inhibition of human ACHN cells incubated for 48 hrs by sulforhodamine B assay; format: functional, cell-based
[11] = test system: 786-0; experiment: Growth inhibition of human 786-0 cells incubated for 48 hrs by sulforhodamine B assay; format: functional, cell-based; settings: 786-0, 48 h
[12] = test system: HL-60(TB); experiment: Growth inhibition of human HL-60(TB) cells assessed as cell growth at 0.1 uM incubated for 48 hrs by sulforhodamine B assay relative to control; format: functional; settings: HL-60, 48 h, read-out: Activity
[13] = test system: UACC-62; experiment: Growth inhibition of human UACC62 cells assessed as cell growth at 0.1 uM incubated for 48 hrs by sulforhodamine B assay relative to control; format: functional; settings: UACC-62, 48 h, read-out: Activity
[14] = test system: BT-549; experiment: Growth inhibition of human BT549 cells incubated for 48 hrs by sulforhodamine B assay; format: functional, cell-based; settings: BT-549, 48 h
[15] = test system: M14; experiment: Growth inhibition of human M14 cells assessed as cell growth at 0.1 uM incubated for 48 hrs by sulforhodamine B assay relative to control; format: functional; settings: M14, 48 h, read-out: Activity
[16] = test system: SK-MEL-5; experiment: Growth inhibition of human SK-MEL-5 cells assessed as cell growth at 100 uM incubated for 48 hrs by sulforhodamine B assay relative to control; format: functional; settings: SK-MEL-5, 48 h, read-out: Activity
[17] = test system: MOLT-4; experiment: Growth inhibition of human MOLT4 cells assessed as cell growth at 1 uM incubated for 48 hrs by sulforhodamine B assay relative to control; format: functional; settings: MOLT-4, 48 h, read-out: Activity
[18] = test system: NCI-H322M; experiment: Growth inhibition of human NCI-H322M cells incubated for 48 hrs by sulforhodamine B assay; format: functional, cell-based
[19] = test system: SK-MEL-28; experiment: Growth inhibition of human SK-MEL-28 cells assessed as cell growth at 1 uM incubated for 48 hrs by sulforhodamine B assay relative to control; format: functional; settings: SK-MEL-28, 48 h, read-out: Activity
[20] = test system: NCI-H322M; experiment: Growth inhibition of human NCI-H322M cells assessed as cell growth at 0.01 uM incubated for 48 hrs by sulforhodamine B assay relative to control; format: functional; settings: read-out: Activity
[21] = test system: NCI-H522; experiment: Growth inhibition of human NCI-H522 cells assessed as cell growth at 1 uM incubated for 48 hrs by sulforhodamine B assay relative to control; format: functional; settings: NCI-H522, 48 h, read-out: Activity
[22] = test system: KM12; experiment: Growth inhibition of human KM12 cells incubated for 48 hrs by sulforhodamine B assay; format: functional, cell-based; settings: KM12, 48 h
[23] = test system: T47D; experiment: Growth inhibition of human T47D cells assessed as cell growth at 0.01 uM incubated for 48 hrs by sulforhodamine B assay relative to control; format: functional; settings: read-out: Activity
[24] = test system: CAKI-1; experiment: Growth inhibition of human Caki1 cells assessed as cell growth at 0.1 uM incubated for 48 hrs by sulforhodamine B assay relative to control; format: functional; settings: CAKI-1, 48 h, read-out: Activity
[25] = test system: SK-MEL-2; experiment: Growth inhibition of human SK-MEL-2 cells assessed as cell growth at 0.1 uM incubated for 48 hrs by sulforhodamine B assay relative to control; format: functional; settings: SK-MEL-2, 48 h, read-out: Activity
[26] = test system: U-251; experiment: Growth inhibition of human U251 cells assessed as cell growth at 0.01 uM incubated for 48 hrs by sulforhodamine B assay relative to control; format: functional; settings: U-251, 48 h, read-out: Activity
[27] = test system: MDA-MB-468; experiment: Growth inhibition of human MDA-MB-468 cells assessed as cell growth at 0.01 uM incubated for 48 hrs by sulforhodamine B assay relative to control; format: functional; settings: MDA-MB-468, 48 h, read-out: Activity
[28] = test system: SNB-19; experiment: Growth inhibition of human SNB19 cells assessed as cell growth at 0.1 uM incubated for 48 hrs by sulforhodamine B assay relative to control; format: functional; settings: SNB-19, 48 h, read-out: Activity
[29] = test system: IGROV-1; experiment: Growth inhibition of human IGROV1 cells incubated for 48 hrs by sulforhodamine B assay; format: functional, cell-based; settings: IGROV-1, 48 h
[30] = read-out: LC50 (the source's name)
[31] = read-out: pLC50 (the source's name) (converted)

Molecule O=C(Nc1cccc(-n2cc(-c3ccncc3)c(-c3cc(O)cc(Cl)c3)n2)c1)Nc1ccc(Cl)c(Cl)c1 has a growth at 0.01 µM [1] of 96%, a growth at 100 µM [2] of -26% and a growth at 0.01 µM [3] of 103%. The growth at 0.1 µM [4] was 92%, the growth at 100 µM [5] was -58% and the growth at 0.01 µM [6] was 94%. The growth at 0.1 µM [7] was 99%, the growth at 100 µM [8] was -27% and the growth at 0.1 µM [9] was 95%. For the same molecule, the GI50 ([10]; read-out: GI50) was 2.21 µM, the CC50 [10, 30] was over 100 µM and the TGI ([10]; read-out: TGI) was 67.1 µM. It also gave a GI50 ([10]; read-out: pGI50 (converted)) of 2.19 µM, a CC50 [10, 31] of over 100 µM and a TGI ([10]; read-out: pTGI (converted)) of 8.91 µM. It also gave a GI50 ([11]; read-out: GI50) of 1.48 µM, a CC50 [11, 30] of 9.31 µM and a TGI ([11]; read-out: TGI) of 37.1 µM. It also gave a GI50 ([11]; read-out: pGI50 (converted)) of 1.48 µM, a CC50 [11, 31] of 9.33 µM and a TGI ([11]; read-out: pTGI (converted)) of 3.72 µM. It also gave a growth at 0.1 µM [12] of 100%, a growth at 0.1 µM [13] of 99% and a GI50 ([14]; read-out: GI50) of 2.06 µM. The CC50 [14, 30] was over 100 µM, the TGI ([14]; read-out: TGI) was 52.2 µM and the GI50 ([14]; read-out: pGI50 (converted)) was 2.04 µM. The CC50 [14, 31] was over 100 µM, the TGI ([14]; read-out: pTGI (converted)) was 5.25 µM and the growth at 0.1 µM [15] was 93%. It also gave a growth at 100 µM [16] of -78%, a growth at 1 µM [17] of 84% and a GI50 ([18]; read-out: GI50) of 1.78 µM. For the same molecule, the CC50 [18, 30] was over 100 µM, the TGI ([18]; read-out: TGI) was 76.1 µM and the GI50 ([18]; read-out: pGI50 (converted)) was 1.78 µM. It also gave a CC50 [18, 31] of over 100 µM, a TGI ([18]; read-out: pTGI (converted)) of 7.76 µM and a growth at 1 µM [19] of 90%. The growth at 0.01 µM [20] was 52%, the growth at 1 µM [21] was 54% and the GI50 ([22]; read-out: GI50) was 1.5 µM. The CC50 [22, 30] was 9 µM, the TGI ([22]; read-out: TGI) was 36.9 µM and the GI50 ([22]; read-out: pGI50 (converted)) was 1.51 µM. For the same molecule, the CC50 [22, 31] was 9.12 µM, the TGI ([22]; read-out: pTGI (converted)) was 3.72 µM and the growth at 0.01 µM [23] was 106%. It also gave a growth at 0.1 µM [24] of 98%, a growth at 0.1 µM [25] of 96% and a growth at 0.01 µM [26] of 96%. It also gave a growth at 0.01 µM [27] of 92%, a growth at 0.1 µM [28] of 95% and a GI50 ([29]; read-out: GI50) of 2.56 µM. It also gave a CC50 [29, 30] of over 100 µM, a TGI ([29]; read-out: TGI) of 92.3 µM and a GI50 ([29]; read-out: pGI50 (converted)) of 2.88 µM. For the same molecule, the CC50 [29, 31] was over 100 µM and the TGI ([29]; read-out: pTGI (converted)) was 9.33 µM.
